# pIC50: −log10 of the molar value. Read-outs that look alike come from different tables or passages of the source.
# What was measured:
# human GnRHR I = target: T1, human GnRHR I (Homo sapiens, UniProt P30968); test: Competitive radioligand binding (125I-DTyr6-His5-GnRH) on membranes from HEK 293 cells stably expressing GnRHR I
# T1 construct: expressed in transfected cells
# T1 sequence (P30968 1-328): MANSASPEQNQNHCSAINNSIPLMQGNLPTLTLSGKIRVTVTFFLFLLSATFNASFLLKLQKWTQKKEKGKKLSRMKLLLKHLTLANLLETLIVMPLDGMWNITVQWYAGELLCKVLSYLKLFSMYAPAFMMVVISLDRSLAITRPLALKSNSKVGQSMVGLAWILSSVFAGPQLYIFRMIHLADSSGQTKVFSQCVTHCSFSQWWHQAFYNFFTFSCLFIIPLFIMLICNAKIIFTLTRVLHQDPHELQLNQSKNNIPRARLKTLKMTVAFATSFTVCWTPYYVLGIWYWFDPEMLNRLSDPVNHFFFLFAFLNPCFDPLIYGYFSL
# [1] = target: E. coli Trx1 / E. coli TrxR (thioredoxin system) (Escherichia coli, UniProt P0AA25); test: Disulfide bond reduction assay by EcoTrx1 (NADPH absorbance at 340 nm); format: biochemical; details: for Absorbance Asample1 / Absorbance Asample2 / Absorbance Average1, 2: A340, with TrxR
# Description: The assay employed was based on changes in the absorbance at 340 nm from the oxidation of NADPH using a modified version of the protocol laid out in [90]. Briefly, the decrease in A340 was measured in 96-well plates containing 100 μL of 200 mM potassium phosphate pH 7.4, 1 mM EDTA, 0.1 mg/mL BSA, 200 μM NADPH, 2 μM E. coli Trx1 and 10 nM E. coli TrxR for 5 min at 25 °C with insulin at a final concentration of 0.067 mM (0.2 mM disulfides) (see Table S2). The reduction of con7 was measured at a final concentration of 0.2 mM (see Table S3). Blanks were samples without EcoTrxR.
# Figure 4 Reduction of (A) con7 and (B) insulin by EcoTrx1. The assay mixture contains 200 mM potassium phosphate pH 7.4, 1 mM EDTA, 0.1 mg/mL BSA, 200 μM NADPH, 2 μM Escherichia coli Trx1, 10 nM E. coli TrxR, (A) 0.2 mM con7 or (B) 0.067 mM (0.2 mM disulfides) insulin. The reaction was carried out at 25 °C by monitoring the decrease of NADPH absorbance at 340 nm for (A) con7 in the absence ( [drawing 1] ) or presence of TrxR ( [drawing 2] ) and (B) insulin in the absence ( [drawing 3] ) or presence of TrxR ( [drawing 4] ).
# [2] = competition with 125I-DTyr6-His5-GnRH, HEK 293 membranes, 4 °C 16-19 h, one-site model, read-out: apparent binding affinity (IC50)
# Chain of E. coli Trx1 / E. coli TrxR (thioredoxin system) (P0AA25 2-109): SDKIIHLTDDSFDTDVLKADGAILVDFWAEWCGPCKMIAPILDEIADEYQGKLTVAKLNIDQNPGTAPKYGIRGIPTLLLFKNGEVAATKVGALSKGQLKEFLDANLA
compound,measurement,setting,value
"CCNC(=O)[C@@H]1CCCN1C(=O)[C@H](CCCNC(=N)N)NC(=O)[C@H](CC(C)C)NC(=O)[C@@H](CS)NC(=O)[C@H](Cc1ccc(O)cc1)NC(=O)[C@H](CO)NC(=O)[C@H](Cc1c[nH]c2ccccc12)NC(=O)[C@H](Cc1c[nH]cn1)NC(=O)[C@@H]1CCC(=O)N1 [analogue 2, [DCys^6, Pro^9-NHEt]GnRH]",pIC50,human GnRHR I; [2],9.15
"O=C1c2c(O)ccc(O)c2C(=O)c2c(NCCNCCO)ccc(NCCNCCO)c21 [mitoxantrone, reference compound]",apparent binding affinity (IC50),"human GnRHR I; competition with 125I-DTyr6-His5-GnRH, HEK 293 membranes, 4 °C 16-19 h, one-site model",did not bind
same,pIC50,human GnRHR I; [2],< 6.00
CCNC(=O)[C@@H]1CCCN1C(=O)[C@H](CCCNC(=N)N)NC(=O)[C@H](CC(C)C)NC(=O)[C@@H](CCCCNC(=O)CCCCCNC(=O)CCSSCC(=O)NCCCCNc1ccc(O)c2c1C(=O)c1ccccc1C2=O)NC(=O)[C@H](Cc1ccc(O)cc1)NC(=O)[C@H](CO)NC(=O)[C@H](Cc1c[nH]c2ccccc12)NC(=O)[C@H](Cc1c[nH]cn1)NC(=O)[C@@H]1CCC(=O)N1 [con6],pIC50,human GnRHR I; [2],10.15
CCNC(=O)[C@@H]1CCCN1C(=O)[C@H](CCCNC(=N)N)NC(=O)[C@H](CC(C)C)NC(=O)[C@@H](CSSCCC(=O)OCCNCCNc1ccc(NCCNCCO)c2c1C(=O)c1c(O)ccc(O)c1C2=O)NC(=O)[C@H](Cc1ccc(O)cc1)NC(=O)[C@H](CO)NC(=O)[C@H](Cc1c[nH]c2ccccc12)NC(=O)[C@H](Cc1c[nH]cn1)NC(=O)[C@@H]1CCC(=O)N1 [con3],pIC50,human GnRHR I,10.15
"CCNC(=O)[C@@H]1CCCN1C(=O)[C@H](CCCNC(=N)N)NC(=O)[C@H](CC(C)C)NC(=O)[C@@H](CCCCN)NC(=O)[C@H](Cc1ccc(O)cc1)NC(=O)[C@H](CO)NC(=O)[C@H](Cc1c[nH]c2ccccc12)NC(=O)[C@H](Cc1c[nH]cn1)NC(=O)[C@@H]1CCC(=O)N1 [analogue 4, (DLys^6, Pro^9-NHEt)GnRH]",pIC50,human GnRHR I; [2],8.60
insulin,Absorbance Asample1,[1]; 0 sec,0.236
same,Absorbance Asample2,[1]; 0 sec,0.257
same,"Absorbance Average1, 2",[1]; 0 sec,0.247
same,Absorbance Asample1,[1]; 9 sec,0.236
same,Absorbance Asample2,[1]; 9 sec,0.257
same,"Absorbance Average1, 2",[1]; 9 sec,0.247
same,Absorbance Asample1,[1]; 18 sec,0.236
same,Absorbance Asample2,[1]; 18 sec,0.257
same,"Absorbance Average1, 2",[1]; 18 sec,0.247
same,Absorbance Asample1,[1]; 27 sec,0.235
same,Absorbance Asample2,[1]; 27 sec,0.257
same,"Absorbance Average1, 2",[1]; 27 sec,0.246
same,Absorbance Asample1,[1]; 36 sec,0.236
same,Absorbance Asample2,[1]; 36 sec,0.256
same,"Absorbance Average1, 2",[1]; 36 sec,0.246
same,Absorbance Asample1,[1]; 45 sec,0.235
same,Absorbance Asample2,[1]; 45 sec,0.256
same,"Absorbance Average1, 2",[1]; 45 sec,0.246
same,Absorbance Asample1,[1]; 54 sec,0.235
same,Absorbance Asample2,[1]; 54 sec,0.255
same,"Absorbance Average1, 2",[1]; 54 sec,0.245
same,Absorbance Asample1,[1]; 63 sec,0.235
same,Absorbance Asample2,[1]; 63 sec,0.256
same,"Absorbance Average1, 2",[1]; 63 sec,0.246
same,Absorbance Asample1,[1]; 72 sec,0.235
same,Absorbance Asample2,[1]; 72 sec,0.255
same,"Absorbance Average1, 2",[1]; 72 sec,0.245
same,Absorbance Asample1,[1]; 81 sec,0.233
same,Absorbance Asample2,[1]; 81 sec,0.254
same,"Absorbance Average1, 2",[1]; 81 sec,0.244
same,Absorbance Asample1,[1]; 90 sec,0.235
same,Absorbance Asample2,[1]; 90 sec,0.255
same,"Absorbance Average1, 2",[1]; 90 sec,0.245
same,Absorbance Asample1,[1]; 99 sec,0.234
same,Absorbance Asample2,[1]; 99 sec,0.254
same,"Absorbance Average1, 2",[1]; 99 sec,0.244
same,Absorbance Asample1,[1]; 108 sec,0.234
same,Absorbance Asample2,[1]; 108 sec,0.255
same,"Absorbance Average1, 2",[1]; 108 sec,0.245
same,Absorbance Asample1,[1]; 117 sec,0.235
same,Absorbance Asample2,[1]; 117 sec,0.253
same,"Absorbance Average1, 2",[1]; 117 sec,0.244
same,Absorbance Asample1,[1]; 126 sec,0.234
same,Absorbance Asample2,[1]; 126 sec,0.253
same,"Absorbance Average1, 2",[1]; 126 sec,0.244
same,Absorbance Asample1,[1]; 135 sec,0.235
same,Absorbance Asample2,[1]; 135 sec,0.253
same,"Absorbance Average1, 2",[1]; 135 sec,0.244
same,Absorbance Asample1,[1]; 144 sec,0.234
same,Absorbance Asample2,[1]; 144 sec,0.253
same,"Absorbance Average1, 2",[1]; 144 sec,0.244
same,Absorbance Asample1,[1]; 153 sec,0.232
same,Absorbance Asample2,[1]; 153 sec,0.252
same,"Absorbance Average1, 2",[1]; 153 sec,0.242
same,Absorbance Asample1,[1]; 162 sec,0.233
same,Absorbance Asample2,[1]; 162 sec,0.253
same,"Absorbance Average1, 2",[1]; 162 sec,0.243
same,Absorbance Asample1,[1]; 171 sec,0.233
same,Absorbance Asample2,[1]; 171 sec,0.252
same,"Absorbance Average1, 2",[1]; 171 sec,0.243
same,Absorbance Asample1,[1]; 180 sec,0.233
same,Absorbance Asample2,[1]; 180 sec,0.252
same,"Absorbance Average1, 2",[1]; 180 sec,0.243
same,Absorbance Asample1,[1]; 189 sec,0.232
same,Absorbance Asample2,[1]; 189 sec,0.252
same,"Absorbance Average1, 2",[1]; 189 sec,0.242
same,Absorbance Asample1,[1]; 198 sec,0.233
same,Absorbance Asample2,[1]; 198 sec,0.252
same,"Absorbance Average1, 2",[1]; 198 sec,0.243
same,Absorbance Asample1,[1]; 207 sec,0.232
same,Absorbance Asample2,[1]; 207 sec,0.252
same,"Absorbance Average1, 2",[1]; 207 sec,0.242
same,Absorbance Asample1,[1]; 216 sec,0.233
same,Absorbance Asample2,[1]; 216 sec,0.252
same,"Absorbance Average1, 2",[1]; 216 sec,0.243
same,Absorbance Asample1,[1]; 225 sec,0.232
same,Absorbance Asample2,[1]; 225 sec,0.252
same,"Absorbance Average1, 2",[1]; 225 sec,0.242
same,Absorbance Asample1,[1]; 234 sec,0.232
same,Absorbance Asample2,[1]; 234 sec,0.252
same,"Absorbance Average1, 2",[1]; 234 sec,0.242
same,Absorbance Asample1,[1]; 243 sec,0.231
same,Absorbance Asample2,[1]; 243 sec,0.251
same,"Absorbance Average1, 2",[1]; 243 sec,0.241
same,Absorbance Asample1,[1]; 252 sec,0.231
same,Absorbance Asample2,[1]; 252 sec,0.251
same,"Absorbance Average1, 2",[1]; 252 sec,0.241
same,Absorbance Asample1,[1]; 261 sec,0.230
same,Absorbance Asample2,[1]; 261 sec,0.250
same,"Absorbance Average1, 2",[1]; 261 sec,0.240
same,Absorbance Asample1,[1]; 270 sec,0.230
same,Absorbance Asample2,[1]; 270 sec,0.250
same,"Absorbance Average1, 2",[1]; 270 sec,0.240
same,Absorbance Asample1,[1]; 279 sec,0.231
same,Absorbance Asample2,[1]; 279 sec,0.251
same,"Absorbance Average1, 2",[1]; 279 sec,0.241
same,Absorbance Asample1,[1]; 288 sec,0.230
same,Absorbance Asample2,[1]; 288 sec,0.250
same,"Absorbance Average1, 2",[1]; 288 sec,0.240
same,Absorbance Asample1,[1]; 297 sec,0.229
same,Absorbance Asample2,[1]; 297 sec,0.250
same,"Absorbance Average1, 2",[1]; 297 sec,0.240
same,reduction of disulfide bond by the thioredoxin system,[1]; decrease of NADPH absorbance over time in samples containing TrxR,successful

# From PMC10607160 (International Journal of Molecular Sciences, 2023)
